This is an account of results in US20080045529A1, “Use Of Thienopyrimidines” (MERCK PATENT GMBH, priority 2003, published 2008).

The target of one data set is TIE-2 (Homo sapiens, UniProt Q02763). Description: Tie-2 kinase flashplate assay (phosphorylation of poly(Glu, Tyr) with 33P-ATP). The following applies: read-out: Inhibition of TIE-2 IC50. Format: biochemical. The procedure:
The TIE-2 tests can be carried out, for example, analogously to the methods indicated in WO 02/44156.
The assay determines the inhibiting activity of the substances to be tested in the phosphorylation of the substrate poly(Glu, Tyr) by Tie-2 kinase in the presence of radioactive ^33P-ATP. The phosphorylated substrate binds to the surface of a “flashplate” microtitre plate during the incubation time. After removal of the reaction mixture, the microtitre plate is washed a number of times and the radioactivity on its surface is subsequently measured. An inhibiting effect of the substances to be measured results in lower radioactivity compared with an undisturbed enzymatic reaction.

The next data set has as its system RAF. Description: Inhibition of RAF. Type of data set: biochemical.

Sequence of TIE-2 (Q02763 23-1124, species assumed): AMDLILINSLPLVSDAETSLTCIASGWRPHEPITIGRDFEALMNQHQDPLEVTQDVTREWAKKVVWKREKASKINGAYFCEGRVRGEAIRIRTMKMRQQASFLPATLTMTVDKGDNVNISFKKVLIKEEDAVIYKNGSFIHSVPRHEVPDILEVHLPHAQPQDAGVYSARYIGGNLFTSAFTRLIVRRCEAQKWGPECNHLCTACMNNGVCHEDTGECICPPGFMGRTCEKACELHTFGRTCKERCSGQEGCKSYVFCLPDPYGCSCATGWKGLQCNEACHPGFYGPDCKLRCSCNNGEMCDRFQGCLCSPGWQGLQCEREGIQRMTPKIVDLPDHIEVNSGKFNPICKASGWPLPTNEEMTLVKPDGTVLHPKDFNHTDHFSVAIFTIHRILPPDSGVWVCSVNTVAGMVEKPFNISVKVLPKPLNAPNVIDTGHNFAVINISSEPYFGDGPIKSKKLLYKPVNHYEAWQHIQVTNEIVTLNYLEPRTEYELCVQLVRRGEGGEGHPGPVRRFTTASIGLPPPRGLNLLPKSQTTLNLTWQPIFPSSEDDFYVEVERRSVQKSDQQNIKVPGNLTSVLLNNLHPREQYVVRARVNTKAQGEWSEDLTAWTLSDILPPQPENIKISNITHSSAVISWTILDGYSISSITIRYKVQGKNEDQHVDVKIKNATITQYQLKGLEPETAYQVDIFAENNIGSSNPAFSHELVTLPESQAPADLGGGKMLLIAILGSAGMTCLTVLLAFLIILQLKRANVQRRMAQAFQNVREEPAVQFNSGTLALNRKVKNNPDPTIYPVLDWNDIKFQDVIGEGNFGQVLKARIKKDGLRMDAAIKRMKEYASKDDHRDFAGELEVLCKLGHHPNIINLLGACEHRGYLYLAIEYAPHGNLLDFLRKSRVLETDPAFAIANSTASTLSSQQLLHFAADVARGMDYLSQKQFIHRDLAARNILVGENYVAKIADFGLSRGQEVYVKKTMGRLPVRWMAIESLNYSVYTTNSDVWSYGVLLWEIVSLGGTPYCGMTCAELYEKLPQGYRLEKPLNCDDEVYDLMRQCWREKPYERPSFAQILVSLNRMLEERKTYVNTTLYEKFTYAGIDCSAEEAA

As to `c1cnn(-c2nc(NCc3ccc4c(c3)OCO4)c3c4c(sc3n2)CCCC4)c1`, the IC50 on TIE-2 turned out to be 0.15 µM. `c1cc2c(cc1CNc1nc(N3CCOCC3)nc3sc4c(c13)CCCC4)OCO2` gave a half-inhibitory concentration (IC50) with RAF of 4.3 µM. The same measure, in the same setting: next, `Cc1sc2nc(N3CCOCC3)nc(NCc3ccc4c(c3)OCO4)c2c1C`: 5.3 µM.

On to `Cc1cc2c(NCc3ccc4c(c3)OCO4)nc(-n3ccnc3)nc2s1` [Example 2, 2-(imidazol-1-yl)-6-methyl-4-(3,4-methylenedioxybenzylamino)thieno[2,3-d]pyrimidine], for which the melting point lay within 248 to 250 °C.

Usually IC50 stands for the midpoint of a concentration-inhibition curve. The melting point is the temperature of the solid-liquid transition.
